Tests used:
Experiment in all cases: relative viability (nuclei count vs DMSO), 5 days (fraction); higher = more cells survive
Decitabine + Tozasertib = compound: Nc1ncn([C@H]2C[C@H](O)[C@@H](CO)O2)c(=O)n1 [Decitabine] + Cc1cc(Nc2cc(N3CCN(C)CC3)nc(Sc3ccc(NC(=O)C4CC4)cc3)n2)n[nH]1 [Tozasertib] (partner 0.1 µM)
Method in brief: (§1)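 Dosing by pin tool came one day after lung cancer cell lines were seeded in 1536-well plates, using either one drug or a fixed anchor-drug dose plus five library-drug doses (not always all listed) in √10 steps. After 5 days, nuclei were counted on 4× images. Relative viability is treated-well nuclei count divided by vehicle-well nuclei count, and values are medians of duplicate plates.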

[1] = compound: O=C(C[C@H]1NCCC[C@@H]1O)Cn1cnc2cc(Br)c(Cl)cc2c1=O (racemic) [Halofuginone] + CC(=O)Nc1cccc(-n2c(=O)n(C3CC3)c(=O)c3c(Nc4ccc(I)cc4F)n(C)c(=O)c(C)c32)c1 [Trametinib] (partner 0.02 µM)
Method in brief: as §1

[2] = compound: O=C(C[C@H]1NCCC[C@@H]1O)Cn1cnc2cc(Br)c(Cl)cc2c1=O (racemic) [Halofuginone] + CC1(C)CCC(c2ccc(Cl)cc2)=C(CN2CCN(c3ccc(C(=O)NS(=O)(=O)c4ccc(N[C@H](CCN5CCOCC5)CSc5ccccc5)c(S(=O)(=O)C(F)(F)F)c4)cc3)CC2)C1 [Navitoclax] (partner 0.5 µM)
Method in brief: as §1

Halofuginone + Alpelisib = compound: O=C(C[C@H]1NCCC[C@@H]1O)Cn1cnc2cc(Br)c(Cl)cc2c1=O (racemic) [Halofuginone] + Cc1nc(NC(=O)N2CCC[C@H]2C(N)=O)sc1-c1ccnc(C(C)(C)C(F)(F)F)c1 [Alpelisib] (partner 2 µM)
Method in brief: as §1

Cell Line: NCI-H1623
- relative viability (Decitabine + Tozasertib; first compound 0.04 µM): 0.401
- relative viability (Decitabine + Tozasertib; first compound 0.1265 µM): 0.422
- relative viability (Decitabine + Tozasertib; first compound 0.4 µM): 0.367
- relative viability (Decitabine + Tozasertib; first compound 1.265 µM): 0.373
- relative viability (Decitabine + Tozasertib; first compound 4 µM): 0.305

Cell Line: HCC-827
- relative viability (Decitabine + Tozasertib; first compound 0.04 µM): 0.253
- relative viability (Decitabine + Tozasertib; first compound 0.1265 µM): 0.265
- relative viability (Decitabine + Tozasertib; first compound 0.4 µM): 0.219
- relative viability (Decitabine + Tozasertib; first compound 1.265 µM): 0.221
- relative viability (Decitabine + Tozasertib; first compound 4 µM): 0.224
- relative viability ([1]; first compound 0.001 µM): 0.591
- relative viability ([1]; first compound 0.003162 µM): 0.524
- relative viability ([1]; first compound 0.01 µM): 0.515
- relative viability ([1]; first compound 0.03162 µM): 0.575
- relative viability ([1]; first compound 0.1 µM): 0.433
- relative viability ([2]; first compound 0.001 µM): 1.05
- relative viability ([2]; first compound 0.003162 µM): 1.05
- relative viability ([2]; first compound 0.01 µM): 1.01
- relative viability ([2]; first compound 0.03162 µM): 1.01
- relative viability ([2]; first compound 0.1 µM): 0.852
- relative viability (Halofuginone + Alpelisib; first compound 0.001 µM): 0.98
- relative viability (Halofuginone + Alpelisib; first compound 0.003162 µM): 0.959
- relative viability (Halofuginone + Alpelisib; first compound 0.01 µM): 0.908
- relative viability (Halofuginone + Alpelisib; first compound 0.03162 µM): 1.07
- relative viability (Halofuginone + Alpelisib; first compound 0.1 µM): 0.815

Cell Line: NCI-H322M
- relative viability (Decitabine + Tozasertib; first compound 0.04 µM): 0.415
- relative viability (Decitabine + Tozasertib; first compound 0.1265 µM): 0.484
- relative viability (Decitabine + Tozasertib; first compound 0.4 µM): 0.426
- relative viability (Decitabine + Tozasertib; first compound 1.265 µM): 0.35
- relative viability (Decitabine + Tozasertib; first compound 4 µM): 0.376
- relative viability ([1]; first compound 0.001 µM): 0.512
- relative viability ([1]; first compound 0.003162 µM): 0.441
- relative viability ([1]; first compound 0.01 µM): 0.513
- relative viability ([1]; first compound 0.03162 µM): 0.479
- relative viability ([1]; first compound 0.1 µM): 0.423
- relative viability ([2]; first compound 0.001 µM): 1.2
- relative viability ([2]; first compound 0.003162 µM): 1.26
- relative viability ([2]; first compound 0.01 µM): 1.26
- relative viability ([2]; first compound 0.03162 µM): 1.24
- relative viability ([2]; first compound 0.1 µM): 1.19
- relative viability (Halofuginone + Alpelisib; first compound 0.001 µM): 0.516
- relative viability (Halofuginone + Alpelisib; first compound 0.003162 µM): 0.879
- relative viability (Halofuginone + Alpelisib; first compound 0.01 µM): 0.777
- relative viability (Halofuginone + Alpelisib; first compound 0.03162 µM): 0.802
- relative viability (Halofuginone + Alpelisib; first compound 0.1 µM): 0.768

Cell Line: ChaGo-K-1
- relative viability (Decitabine + Tozasertib; first compound 0.04 µM): 0.23
- relative viability (Decitabine + Tozasertib; first compound 0.1265 µM): 0.238
- relative viability (Decitabine + Tozasertib; first compound 0.4 µM): 0.189
- relative viability (Decitabine + Tozasertib; first compound 1.265 µM): 0.176
- relative viability (Decitabine + Tozasertib; first compound 4 µM): 0.208
- relative viability ([1]; first compound 0.001 µM): 0.873
- relative viability ([1]; first compound 0.003162 µM): 0.899
- relative viability ([1]; first compound 0.01 µM): 0.924
- relative viability ([1]; first compound 0.03162 µM): 0.887
- relative viability ([1]; first compound 0.1 µM): 0.79
- relative viability ([2]; first compound 0.001 µM): 0.88
- relative viability ([2]; first compound 0.003162 µM): 0.587
- relative viability ([2]; first compound 0.01 µM): 1.01
- relative viability ([2]; first compound 0.03162 µM): 0.859
- relative viability ([2]; first compound 0.1 µM): 0.975

Cell Line: BEN
- relative viability (Decitabine + Tozasertib; first compound 0.04 µM): 0.443
- relative viability (Decitabine + Tozasertib; first compound 0.1265 µM): 0.454
- relative viability (Decitabine + Tozasertib; first compound 0.4 µM): 0.421
- relative viability (Decitabine + Tozasertib; first compound 1.265 µM): 0.371
- relative viability (Decitabine + Tozasertib; first compound 4 µM): 0.355
- relative viability ([1]; first compound 0.001 µM): 1.14
- relative viability ([1]; first compound 0.003162 µM): 1.11
- relative viability ([1]; first compound 0.01 µM): 1.07
- relative viability ([1]; first compound 0.03162 µM): 1.02
- relative viability ([1]; first compound 0.1 µM): 0.714
- relative viability ([2]; first compound 0.001 µM): 0.0684
- relative viability ([2]; first compound 0.003162 µM): 0.132
- relative viability ([2]; first compound 0.01 µM): 0.0701
- relative viability ([2]; first compound 0.03162 µM): 0.0526
- relative viability ([2]; first compound 0.1 µM): 0.0549
- relative viability (Halofuginone + Alpelisib; first compound 0.001 µM): 0.974
- relative viability (Halofuginone + Alpelisib; first compound 0.003162 µM): 1.12
- relative viability (Halofuginone + Alpelisib; first compound 0.01 µM): 1.1
- relative viability (Halofuginone + Alpelisib; first compound 0.03162 µM): 0.975
- relative viability (Halofuginone + Alpelisib; first compound 0.1 µM): 0.478

Cell Line: NCI-H2347
- relative viability (Decitabine + Tozasertib; first compound 0.04 µM): 0.415
- relative viability (Decitabine + Tozasertib; first compound 0.1265 µM): 0.486
- relative viability (Decitabine + Tozasertib; first compound 0.4 µM): 0.493
- relative viability (Decitabine + Tozasertib; first compound 1.265 µM): 0.358
- relative viability (Decitabine + Tozasertib; first compound 4 µM): 0.347
- relative viability ([1]; first compound 0.001 µM): 0.256
- relative viability ([1]; first compound 0.003162 µM): 0.284
- relative viability ([1]; first compound 0.01 µM): 0.289
- relative viability ([1]; first compound 0.03162 µM): 0.258
- relative viability ([1]; first compound 0.1 µM): 0.253
- relative viability ([2]; first compound 0.001 µM): 0.814
- relative viability ([2]; first compound 0.003162 µM): 0.838
- relative viability ([2]; first compound 0.01 µM): 0.859
- relative viability ([2]; first compound 0.03162 µM): 0.845
- relative viability ([2]; first compound 0.1 µM): 0.589
- relative viability (Halofuginone + Alpelisib; first compound 0.001 µM): 1.07
- relative viability (Halofuginone + Alpelisib; first compound 0.003162 µM): 1.07
- relative viability (Halofuginone + Alpelisib; first compound 0.01 µM): 1.09
- relative viability (Halofuginone + Alpelisib; first compound 0.03162 µM): 1.02
- relative viability (Halofuginone + Alpelisib; first compound 0.1 µM): 0.876

Cell Line: LOU-NH91
- relative viability (Decitabine + Tozasertib; first compound 0.04 µM): 0.444
- relative viability (Decitabine + Tozasertib; first compound 0.1265 µM): 0.606
- relative viability (Decitabine + Tozasertib; first compound 0.4 µM): 0.522
- relative viability (Decitabine + Tozasertib; first compound 1.265 µM): 0.464
- relative viability (Decitabine + Tozasertib; first compound 4 µM): 0.512
- relative viability ([1]; first compound 0.001 µM): 0.819
- relative viability ([1]; first compound 0.003162 µM): 0.817
- relative viability ([1]; first compound 0.01 µM): 0.724
- relative viability ([1]; first compound 0.03162 µM): 0.778
- relative viability ([1]; first compound 0.1 µM): 0.697
- relative viability ([2]; first compound 0.001 µM): 0.746
- relative viability ([2]; first compound 0.003162 µM): 0.705
- relative viability ([2]; first compound 0.01 µM): 0.719
- relative viability ([2]; first compound 0.03162 µM): 0.719
- relative viability ([2]; first compound 0.1 µM): 0.536
- relative viability (Halofuginone + Alpelisib; first compound 0.001 µM): 0.774
- relative viability (Halofuginone + Alpelisib; first compound 0.003162 µM): 0.731
- relative viability (Halofuginone + Alpelisib; first compound 0.01 µM): 0.721
- relative viability (Halofuginone + Alpelisib; first compound 0.03162 µM): 0.741
- relative viability (Halofuginone + Alpelisib; first compound 0.1 µM): 0.64

Cell Line: NCI-H2228
- relative viability (Decitabine + Tozasertib; first compound 0.04 µM): 0.176
- relative viability (Decitabine + Tozasertib; first compound 0.1265 µM): 0.207
- relative viability (Decitabine + Tozasertib; first compound 0.4 µM): 0.134
- relative viability (Decitabine + Tozasertib; first compound 1.265 µM): 0.114
- relative viability (Decitabine + Tozasertib; first compound 4 µM): 0.104
- relative viability ([1]; first compound 0.001 µM): 0.662
- relative viability ([1]; first compound 0.003162 µM): 0.4
- relative viability ([1]; first compound 0.01 µM): 0.436
- relative viability ([1]; first compound 0.03162 µM): 0.39
- relative viability ([1]; first compound 0.1 µM): 0.0996
- relative viability ([2]; first compound 0.001 µM): 0.976
- relative viability ([2]; first compound 0.003162 µM): 0.857
- relative viability ([2]; first compound 0.01 µM): 0.879
- relative viability ([2]; first compound 0.03162 µM): 0.228
- relative viability ([2]; first compound 0.1 µM): 0.126
- relative viability (Halofuginone + Alpelisib; first compound 0.001 µM): 0.797
- relative viability (Halofuginone + Alpelisib; first compound 0.003162 µM): 0.877
- relative viability (Halofuginone + Alpelisib; first compound 0.01 µM): 0.762
- relative viability (Halofuginone + Alpelisib; first compound 0.03162 µM): 0.399
- relative viability (Halofuginone + Alpelisib; first compound 0.1 µM): 0.151

Cell Line: NCI-H2342
- relative viability (Decitabine + Tozasertib; first compound 0.04 µM): 0.495
- relative viability (Decitabine + Tozasertib; first compound 0.1265 µM): 0.502
- relative viability (Decitabine + Tozasertib; first compound 0.4 µM): 0.552
- relative viability (Decitabine + Tozasertib; first compound 1.265 µM): 0.385
- relative viability (Decitabine + Tozasertib; first compound 4 µM): 0.362
- relative viability ([1]; first compound 0.001 µM): 0.816
- relative viability ([1]; first compound 0.003162 µM): 0.832
- relative viability ([1]; first compound 0.01 µM): 0.972
- relative viability ([1]; first compound 0.03162 µM): 0.85
- relative viability ([1]; first compound 0.1 µM): 0.823

— the supplement of paper PMC10307832
